Results published in patent US20020107281A1, “Phototherapeutic and chemotherapeutic immunotherapy against tumors” (Photogen, Inc., priority 2000, published 2002).

Key:
[1] = tested on: multiple superficial mast cell tumors; assay: Intra-lesional Rose Bengal chemotherapy in a dog with mast cell tumors (Example 7); assay type: in vivo
Description: This chemotherapeutic and immunologic anti-tumoral effect for the prototypical halogenated xanthene, Rose Bengal, is illustrated by the following example which is not intended to limit the present invention. An adult, female dog with multiple superficial mast cell tumors was treated by injection of several cc of a 10% solution of Rose Bengal into each of several tumors (approximately one third of the total tumors were treated in this manner). […] Such a response in the treated tumors is consistent with the expected chemotherapeutic modality of the injected Rose Bengal, while the noted decrease in non-treated tumors represents an ongoing immune assault upon remaining remote tumor tissues.

subcutaneous RAG tumors [2] = assay: Intra-lesional Rose Bengal chemotherapy of RAG tumors, immune competent mice (Example 8); assay type: in vivo, C57BL/6 mice; conditions: 10% solution intra-lesionally
Excerpt: (§1) The immunologic basis for phototherapy-induced immunity is further illustrated by the following example which is not intended to limit the present invention. As an additional control, immune incompetent mice were implanted with subcutaneous tumors, treated using phototherapy, then challenged with a second dose of tumor cells. Since they are immune incompetent, the inventors believed that such mice would respond to phototherapy but fail to develop immunity to tumor cells. […] The rate of tumor development from such implantation was approximately 50% (14/28 mice developed tumors within five weeks of injection). The tumors were treated using intra-lesionally-injected Rose Bengal and green light photoactivation (1% Rose Bengal administered intra-lesionally at approximately 1 cc/cm^3 tumor volume, then illuminated 24 hours post administration using 532 nm laser light at 100 J/cm^2, 200 mW/cm^2).
(§2) The chemotherapeutic and immunologic anti-tumoral effect for the prototypical halogenated xanthene, Rose Bengal, is further illustrated by the following example which is not intended to limit the present invention. Immune competent mice (C57BL/6 mice) and immune incompetent mice (BALB/C athymic nude mice) were implanted with subcutaneous RAG tumors, as previously described in Example 4. […]

[3] = tested on: recurrent malignant fibrous histocytoma; assay: Rose Bengal injection plus 60Co irradiation of a dog's tumor (Example 1); assay type: in vivo
Description: This anti-tumoral effect for the prototypical halogenated xanthene, Rose Bengal, is illustrated by the following example which is not intended to limit the present invention. An adult, female dog with a recurrent malignant fibrous histocytoma (an undifferentiated tumor that could be considered to be a poorly differentiated mesenchymal tumor), approximately 20 cc in volume, was treated by injection of approximately 7 cc of a 10% solution of Rose Bengal at several locations throughout the tumor volume. After a period of five days, an irradiation regimen consisting of 5 daily fractions (2 Gy each) of radiation from a ^60Co source was begun in order to effect phototherapy of the tumor. […] Such a response at 5 days is consistent with a chemotherapeutic modality of the injected Rose Bengal, while continued decrease in tumor mass at 19 days is consistent with a phototherapeutic modality related to tumor irradiation. […] This continued tumor regression is consistent with ongoing immune assault upon remaining tumor tissue.

[4] = tested on: renal adenocarcinoma (RAG) tumors; assay: Rose Bengal PDT of RAG tumors in nude mice, then tumor cell rechallenge (Example 4); assay type: in vivo, BALB/C athymic nude mice
Excerpt: as §1

subcutaneous RAG tumors [5] = assay: Intra-lesional Rose Bengal chemotherapy of RAG tumors, immune incompetent mice (Example 8); assay type: in vivo, BALB/C athymic nude mice; conditions: 10% solution intra-lesionally
Excerpt: as §1, §2

[6] = tested on: Murine hepatoma tumor cells (ATCC CRL-1830 Hepa 1-6); assay: Rose Bengal PDT of left-flank tumor in mice with bilateral hepatoma tumors (Example 5); assay type: in vivo, C57BL/6 mice
Description: The immunologic basis for phototherapy-induced immunity is further illustrated by the following example which is not intended to limit the present invention. Murine hepatoma tumor cells (10^6 cells, ATCC CRL-1830 Hepa 1-6) were injected subcutaneously into the left flank of immunocompetent mice (C57BL/6). Concurrent with this implantation, a smaller implantation was performed by injecting 5×10^5 tumor cells into the right flank of these mice. Tumors presented in both flanks within approximately 5-6 days of implantation. One group of mice were otherwise untreated and served as controls. […] A second group received illumination of the left-flank tumor with green light (532 nm laser light at 100 J/cm^2, 200 mW/cm^2). […] A third group received intra-lesional injection of the left-flank tumor with 50 μL of a 10% Rose Bengal solution (the right-flank tumor was not treated); the injected tumor was then illuminated 24 hours post drug administration using 532 nm laser light.

SMILES: O=C([O-])c1c(Cl)c(Cl)c(Cl)c(Cl)c1-c1c2cc(I)c(=O)c(I)c-2oc2c(I)c([O-])c(I)cc12.[Na+].[Na+] [Rose Bengal]
- side-effects in healthy tissue surrounding the treated tumors ([1]; all follow-up intervals): no significant side-effects in healthy tissue surrounding the treated tumors
- systemic side effects ([1]; all follow-up intervals): nor any evidence of significant systemic side effects
- size of mast cell tumors, both treated and non-treated ([1]; several cc of 10% solution into approximately one third of the tumors, over subsequent three month period, no light): marked and progressive reduction in size
- immediate effect of chemotherapeutic treatment on tumor (subcutaneous RAG tumors [2]; approximately 1 cc/cm^3 tumor volume, immune competent mice): immediate tumor necrosis
- cure rate (subcutaneous RAG tumors [2]; immune competent mice (6/6 mice treated), upon follow-up): 100%
- tumor mass at follow-up ([3]; 12 weeks post injection): significant further reduction in tumor mass
- tumor size after irradiation ([3]; 19 days post injection, after 5 daily fractions (2 Gy each) 60Co): further measurable decrease in tumor size
- side-effects in healthy tissue surrounding the tumor ([3]; all follow-up intervals): no significant side-effects in healthy tissue surrounding the tumor
- tumor response before irradiation ([3]; approximately 7 cc of 10% solution injected into tumor, five days post injection, immediately prior to irradiation): measurable decrease in tumor density along with significant edema and apparent necrosis of large sections of the tumor
- final histologic examination for viable tumor tissue ([3]; approximately 12 months post-treatment): no evidence of viable tumor tissue was observed
- effect of phototherapy on treated lesions ([4]; 1% Rose Bengal intra-lesionally, approximately 1 cc/cm^3 tumor volume, 532 nm laser light 100 J/cm^2 24 hours post administration): selective acute necrosis of treated lesions
- tumor development after challenge with second injection of RAG tumor cells ([4]; seven complete responders, 10^4 tumor cells to opposite flank, five weeks following challenge (3/7 mice)): approximately 50%
- immediate effect of chemotherapeutic treatment on tumor (subcutaneous RAG tumors [5]; approximately 1 cc/cm^3 tumor volume, immune incompetent mice): immediate tumor necrosis
- cure rate (subcutaneous RAG tumors [5]; immune incompetent mice (0/4 mice treated), upon follow-up): 0%
- eradication of the treated left-flank tumor ([6]; 50 μL of 10% Rose Bengal solution intra-lesionally, 532 nm laser light 24 hours post administration): 5/5
- spontaneous rejection of the untreated right-flank tumor ([6]; left-flank tumor treated with 10% Rose Bengal and 532 nm light, right-flank tumor not treated): 5/5
